Results: patent US5348956A, “Substituted cyclopropylamino-1,3,5-triazines” (UCB S.A., priority 1991, dated 1994)
Read-outs that look alike come from different tables or passages of the source.

How the values were obtained:
[1] = system: plantar edema induced by immune complexes; assay: "reverse passive Arthus" (RPA) test, anti-inflammatory and anti-edema activity; type: in vivo, Sprague-Dawley rat; settings: Rattus norvegicus, intravenous
Method: The reaction between a soluble antigen and antibodies in the organism may lead to an acute inflammatory reaction accompanied by release of histamine, modification of vascular permeability and formation of a localized edema. […] To this end, the Arthus reaction is induced by subplantar administration of 0.1 ml of heterologous antivalbumin reaginic serum into the right hind paw and by simultaneous intravenous injection of 1 ml/kg ovalbumin (25 mg/ml). The compound to be tested is administered intravenously 30 seconds before induction of the Arthus reaction, in a least 3 different doses. A group of 6 rats is used per dose of compound to be tested. The volume of the paw is measured by plethysmometry before the Arthus reaction and 3 to 5 hours after induction of the Arthus reaction, both in the control animals and in the treated animals. The effect of a compound on the reduction in the edema for each dose and at each measurement time (3 hours and 5 hours) is expressed in % of the edema observed in the control animals. The doses of the compounds (ID30 in μmole/kg) which inhibit by 30%, on average over all the animals, the volume of the edema observed in the control animals are given in Table VII below.

[2] = multiple-trial passive avoidance: learning; type: in vivo, male Sprague-Dawley rats
Method: To evaluate whether a compound can promote learning, the following test is carried out. […] Rats which remain on the mat for this period have acquired the avoidance reflex and are replaced in their original cage without receiving the electric shock. […] The results obtained in the test used to evaluate learning are given in columns 3 and 4. […] The results were analyzed by the Student test.

cAMP in PMN granulocytes = assay: increase in the level of cAMP in PMN granulocytes; type: cell-based, Rat; settings: […]10^-6 mole per liter; PGE1 10^-6 mole/liter; control 4.3
Source text: Polymorphonuclear neutrophil granulocytes (PMN) are cells which are mobilized during inflammatory phenomena and which can be stimulated by various compounds, such as, for example, formylmethionyl-leucylphenylalanine (FMLP) or prostaglandins E (PGE1). The PMN granulocytes respond to these extracellular stimuli with an activation of the oxygen metabolism with release of toxic oxygenated metabolites. An excessive response of the PMN granulocytes may be the cause of a painful inflammation and is also accompanied by a reduction in the level of cyclic adenosine monophosphate (cAMP) in these granulocytes. […] The reaction is then stopped by addition of 1 ml of propanol. After centrifugation at 15,000 g for 3 minutes, the supernatant is recovered and evaporated and the amount of cAMP in the residue is determined by radioimmunological assay according to the process recommended by the supplier of the reagent used for this purpose (Amersham). A control test is carried out under the same conditions, but in the absence of the compound to be tested.

serotonergic activity = assay: "wet dog shake" (WDS) behavior, serotonergic activity; type: in vivo, male Sprague-Dawley rats; settings: counted over 30 minutes
Method: A decrease in serotonergic activity has been correlated with the occurrence of affective disorders, such as depression and anxiety. […] The test is carried out in the morning on male Sprague-Dawley rats (±180 g), divided the previous day into groups of 8 animals in residence cages. The cage used for the tests is a transparent enclosure of 12×24×30 cm in height, the floor of which is covered with a layer of sand. The compounds to be tested, dissolved either in physiological salt solution or in a citrate buffer of pH 5, are administered intraperitoneally in a different dose for each group treated. The control groups receive an intraperitoneal injection of the same vehicle (either physiological salt solution or citrate buffer). […] The mean values of the results are calculated and analyzed statistically by the Mann-Whitney method. The mean values of the number of shakes obtained for the compounds according to the invention administered intraperitoneally at the doses indicated (in mg/kg) are given in Table V below.

[3] = 3 hours after induction of the Arthus reaction, read-out: Dose (ID30), 3 hours
[4] = 5 hours after induction of the Arthus reaction, read-out: Dose (ID30), 5 hours

| SMILES | ED30 [1, 3] [µmol/kg] | ED30 [1, 4] [µmol/kg] | Amount of cAMP produced (cAMP in PMN granulocytes) [picomoles per 10^7 cells] | Average number of shakes (serotonergic activity; 1.0 mg/kg i.p.) [shakes] | also measured |
| --- | --- | --- | --- | --- | --- |
| CC(C)c1nc(NC2CC2)nc(N2CC3CCC(C2)O3)n1 [Compound 12] | 2.5 | 3 | 16.8 | – | Learning, average number of trials, group 2 ([2]; 1.0 mg/kg i.p.): 1.7 trials |
| CCc1nc(NC2CC2)nc(N2CCOCC2)n1 [Compound 2] | 2.3 | 0.7 | – | 10.0 ± 3.5 | Learning, average number of trials, group 2 ([2]; 1.0 mg/kg i.p.): 2.7 trials |
| OCCN(CCO)c1nc(NC2CC2)nc(C2CC2)n1 [Compound 7] | 7.7 | 11 | 15.8 | – | Average number of shakes (serotonergic activity; 2.8 mg/kg i.p.): 7.9 ± 1.8 shakes; Learning, average number of trials, group 2 ([2]; 2.8 mg/kg i.p.): 1.9 trials |
| CCCc1nc(NC2CC2)nc(N2CC3CCC(C2)O3)n1 [Compound 11] | 0.5 | 0.4 | 16.2 | – | Average number of shakes (serotonergic activity; 1.1 mg/kg i.p.): 4.3 ± 1.4 shakes; Learning, average number of trials, group 2 ([2]; 3.3 mg/kg i.p.): 1.8 trials |
| OC1CN(c2nc(NC3CC3)nc(C3CC3)n2)C1 [Compound 13] | 9 | 4 | – | – | Average number of shakes (serotonergic activity; 2.5 mg/kg i.p.): 5.6 ± 1.8 shakes; Learning, average number of trials, group 2 ([2]; 2.5 mg/kg i.p.): 2.1 trials |
| CCCc1nc(NC2CC2)nc(N2CCOCC2)n1 [Compound 1, 2-Cyclopropylamino-4-morpholino-6-n-propyl-1,3,5-triazine] | 2 | 2 | 21.0 | 7.8 ± 1.6 | Learning, average number of trials, group 2 ([2]; 3.0 mg/kg i.p.): 1.4 trials |
| CCCc1nc(NC2CC2)nc(N(CCO)CCO)n1 [Compound 6] | 12 | 9 | 14.6 | 1.9 ± 0.5 | – |
| COC1CN(c2nc(NC3CC3)nc(C3CC3)n2)C1 [Compound 14] | 16 | 12 | – | – | Average number of shakes (serotonergic activity; 0.8 mg/kg i.p.): 2.1 ± 0.7 shakes; Learning, average number of trials, group 2 ([2]; 2.6 mg/kg i.p.): 1.5 trials |
| C1CC(c2nc(NC3CC3)nc(N3CCOCC3)n2)C1 [Compound 4, 2-cyclobutyl-4-cyclopropylamino-6-morpholino-1,3,5-triazine] | 9 | 10 | 17.7 | – | Average number of shakes (serotonergic activity; 2.8 mg/kg i.p.): 10.6 ± 4.3 shakes; Learning, average number of trials, group 2 ([2]; 2.8 mg/kg i.p.): 1.9 trials |
| CCCc1nc(NC2CC2)nc(N2CCC(O)CC2)n1 [Compound 5] | 3.1 | 27 | 11.6 | – | Average number of shakes (serotonergic activity; 2.8 mg/kg i.p.): 8.4 ± 1.6 shakes; Learning, average number of trials, group 2 ([2]; 2.8 mg/kg i.p.): 2.3 trials |
| C1CN(c2nc(NC3CC3)nc(C3CC3)n2)CCO1.Cl [Compound 3, 2-cyclopropyl-4-cyclopropylamino-6-morpholino-1,3,5-triazine hydrochloride] | 0.8 | 0.4 | 23.2 | 11.9 ± 2.7 | Average number of shakes (serotonergic activity; 0.3 mg/kg i.p.): 5.1 ± 1.0 shakes; Learning, average number of trials, group 2 ([2]; 1.0 mg/kg i.p.): 1.9 trials |
| C1CC1Nc1nc(C2CC2)nc(N2CC3CCC(C2)O3)n1 [Compound 16] | 1.5 | 2 | – | 10.6 ± 1.8 | Learning, average number of trials, group 2 ([2]; 3.25 mg/kg i.p.): 2.2 trials |
